Assays:
[1] = Tablet dissolution, 50 mM sodium acetate buffer pH 5.0 with 2.0% w/v Polysorbate 80, USP Type II, 75 rpm; type: physicochemical
Description: FIGS. 10-12 depict additional dissolution profiles for the sofosbuvir/velpatasvir SSD/voxilaprevir SSD tablets having the formulation described in Table 13 and which were used in phase 1, 2, and 3 clinical studies, where the dissolution testing was conducted at pH 5.0 acetate buffer containing 2.0% w/v polysorbate 80. Four batches of the sofosbuvir/velpatasvir SSD/voxilaprevir SSD tablets were tested, with Batch A manufactured at 100 kg and Batches B, C and D manufactured at 145 kg. All other aspects of the formulation and manufacturing process were otherwise equivalent. […] Moreover, for Batch A, the amount dissolved at 30 min remained between 98 and 100% for sofosbuvir, between 90 and 92% for velpatasvir SSD, and between 89 and 93% for voxilaprevir SSD. […] For Batch D, the amount dissolved at 30 min remained at 100% for sofosbuvir, between 90 and 91% for velpatasvir SSD, and between 89 and 91% for voxilaprevir SSD. Release of velpatasvir SSD and voxilaprevir SSD from the sofosbuvir/velpatasvir SSD/voxilaprevir SSD tablets associated with all four Batches was complete after 60 minutes.

genotype 2 or 3 HCV = assay: SVR in HCV infected patients given sofosbuvir plus other HCV therapeutics; type: in vivo, human; settings: 400 mg once daily plus other HCV therapeutics; genotype 2 or 3 HCV infected patients
Description: Safety and tolerability appeared similar across both dose levels. In addition, when sofosbuvir 400 mg once daily plus other HCV therapeutics were given to genotype 2 or 3 HCV infected patients, 100% SVR24 was observed.

[2] = BCS classification and pH dependence of solubility; type: physicochemical
[3] = Tablet dissolution as a function of medium pH and composition (FIGS. 13-15); type: physicochemical; settings: Formulation G tablets; independent of medium pH and composition
[4] = Tablet dissolution, 1.0% w/v CTAB in 190 mM acetate buffer pH 4.0, USP Type II, 75 rpm; type: physicochemical

SMILES: CC(C)OC(=O)C(C)N[P@](=O)(OC[C@H]1O[C@@H](n2ccc(=O)[nH]c2=O)[C@](C)(F)[C@@H]1O)Oc1ccccc1 (stereo in doubt) [sofosbuvir, (S)-isopropyl 2-(((S)-(((2R,3R,4R,5R)-5-(2,4-dioxo-3,4-dihydropyrimidin-1(2H)-yl)-4-fluoro-3-hydroxy-4-methyltetrahydrofuran-2-yl)methoxy)(phenoxy)phosphoryl)amino)propanoate]
- Dissolved at 30 min ([1]; Batch A, 25° C./60% RH, 3 months): 98%
- Dissolved at 30 min ([1]; Batch A, 25° C./60% RH, 6 months): 98%
- Dissolved at 30 min ([1]; Batch A, 30° C./75% RH, 3 months): 98%
- Dissolved at 30 min ([1]; Batch A, 30° C./75% RH, 6 months): 100%
- Dissolved at 30 min ([1]; Batch A, 40° C./75% RH, 1 month): 98%
- Dissolved at 30 min ([1]; Batch A, 40° C./75% RH, 3 months): 99%
- Dissolved at 30 min ([1]; Batch A, 40° C./75% RH, 6 months): 100%
- Dissolved at 30 min ([1]; Batch A, Initial): 98%
- Dissolved at 30 min ([1]; Batch B, 25° C./60% RH, 3 months): 99%
- Dissolved at 30 min ([1]; Batch B, 25° C./60% RH, 6 months): 99%
- Dissolved at 30 min ([1]; Batch B, 30° C./75% RH, 3 months): 99%
- Dissolved at 30 min ([1]; Batch B, 30° C./75% RH, 6 months): 99%
- Dissolved at 30 min ([1]; Batch B, 40° C./75% RH, 1 month): 100%
- Dissolved at 30 min ([1]; Batch B, 40° C./75% RH, 3 months): 100%
- Dissolved at 30 min ([1]; Batch B, 40° C./75% RH, 6 months): 98%
- Dissolved at 30 min ([1]; Batch B, Initial): 99%
- amount dissolved at 30 min ([1]; Batch D): 100%
- Dissolved at 30 min ([1]; Batch D, 40° C./75% RH, 1 month): 100%
- Dissolved at 30 min ([1]; Batch D, Initial): 100%
- dissolution at 30 minutes ([1]; potency study Lot B, after 4 weeks open at 40° C./75% RH): 100%
- release at 30 minutes ([1]; tablet Lots A and B with different sofosbuvir particle size): 101%
- Dissolved at 30 min (%) ([1]; tablets Batch C, 1 g desiccant, 25° C./60% RH, 3 months): 101%
- Dissolved at 30 min (%) ([1]; tablets Batch C, 1 g desiccant, 25° C./60% RH, 6 months): 99%
- Dissolved at 30 min (%) ([1]; tablets Batch C, 1 g desiccant, 30° C./75% RH, 3 months): 99%
- Dissolved at 30 min (%) ([1]; tablets Batch C, 1 g desiccant, 30° C./75% RH, 6 months): 99%
- Dissolved at 30 min (%) ([1]; tablets Batch C, 1 g desiccant, 40° C./75% RH, 1 month): 100%
- Dissolved at 30 min (%) ([1]; tablets Batch C, 1 g desiccant, 40° C./75% RH, 3 months): 100%
- Dissolved at 30 min (%) ([1]; tablets Batch C, 1 g desiccant, 40° C./75% RH, 6 months): 99%
- Dissolved at 30 min (%) ([1]; tablets Batch C, 1 g desiccant, Initial, time 0): 99%
- Dissolved at 30 min (%) ([1]; tablets from VEL SSD 7.0% water, VOX SSD 3.2% water, Initial, time 0): 100%
- SVR24 (genotype 2 or 3 HCV): 100%
- BCS Class [2]: BCS Class 3
- aqueous solubility, pH dependence [2]: high and pH-independent
- dissolution complete within [3]: ≤ 20 min
- Dissolved at 30 min ([4]; Lot A (14 ct), 25° C./60% RH Closed, 1 month): 98%
- Dissolved at 30 min ([4]; Lot A (14 ct), 25° C./60% RH Closed, 3 months): 103%
- Dissolved at 30 min ([4]; Lot A (14 ct), 25° C./60% RH Closed, 6 months): 103%
- Dissolved at 30 min ([4]; Lot A (14 ct), 40° C./75% RH Closed, 1 month): 100%
- Dissolved at 30 min ([4]; Lot A (14 ct), 40° C./75% RH Closed, 3 months): 100%
- Dissolved at 30 min ([4]; Lot A (14 ct), 40° C./75% RH Closed, 6 months): 100%
- Dissolved at 30 min ([4]; Lot A (14 ct), 40° C./75% RH Open, 1 month): 98%
- Dissolved at 30 min ([4]; Lot A (14 ct), 40° C./75% RH Open, 3 months): 101%
- Dissolved at 30 min ([4]; Lot A (14 ct), 40° C./75% RH Open, 6 months): 100%
- Dissolved at 30 min ([4]; Lot A (14 ct), Initial): 103%
- Dissolved at 30 min ([4]; Lot B (28 ct), 25° C./60% RH Closed, 1 month): 102%
- Dissolved at 30 min ([4]; Lot B (28 ct), 25° C./60% RH Closed, 3 months): 100%
- Dissolved at 30 min ([4]; Lot B (28 ct), 25° C./60% RH Closed, 6 months): 102%
- Dissolved at 30 min ([4]; Lot B (28 ct), 40° C./75% RH Closed, 1 month): 97%
- Dissolved at 30 min ([4]; Lot B (28 ct), 40° C./75% RH Closed, 3 months): 99%
- Dissolved at 30 min ([4]; Lot B (28 ct), 40° C./75% RH Closed, 6 months): 99%
- Dissolved at 30 min ([4]; Lot B (28 ct), Initial): 103%

Source: patent US11338007B2, “Combination formulation of three antiviral compounds” (priority 2016, dated 2022)
